Source: US20080009418A1, “Selective Inhibitors” (Alchemia LTD., priority 2004, published 2008)

Key:
Human Melanocortin (MC4) = biological target: T1, Human Melanocortin (MC4) (Homo sapiens, UniProt P32245); test: Radioligand binding, human melanocortin MC4 membranes, FlashPlate, [125I]-NDP-αMSH; conditions: compound at 10 μM, [125I]-NDP-αMSH
T1 construct: purchased Perkin Elmer Biosignal
How it was run: (§1)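 Cloned human receptor membranes were coated onto FlashPlate wells and incubated with radioligand and compound (added from a 0.5 mM DMSO daughter plate) for 1 hour at room temperature in the dark. Scintillation counting gave percent inhibition, with DMSO defining total and reference ligand defining non-specific binding.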

Mouse urotensin (mUR2) = biological target: T2, Mouse urotensin (mUR2) (Mus musculus, UniProt Q8VIH9); test: Radioligand binding, mouse urotensin mUR2 membranes, FlashPlate, [125I]-Urotensin II; conditions: compound at 10 μM, [125I]-Urotensin II
T2 construct: purchased Perkin Elmer Biosignal
T2 sequence (Q8VIH9 1-385): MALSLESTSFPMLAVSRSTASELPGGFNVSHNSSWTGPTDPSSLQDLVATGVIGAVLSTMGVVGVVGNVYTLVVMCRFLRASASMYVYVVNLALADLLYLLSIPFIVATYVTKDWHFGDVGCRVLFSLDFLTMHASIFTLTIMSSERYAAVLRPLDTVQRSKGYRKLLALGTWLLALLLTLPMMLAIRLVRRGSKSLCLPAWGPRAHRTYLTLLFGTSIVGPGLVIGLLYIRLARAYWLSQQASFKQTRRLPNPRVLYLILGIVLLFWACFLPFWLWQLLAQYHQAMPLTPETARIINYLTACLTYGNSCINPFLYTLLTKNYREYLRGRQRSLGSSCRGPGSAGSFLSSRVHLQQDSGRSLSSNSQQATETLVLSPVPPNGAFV
How it was run: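 Cloned mouse urotensin (mUR2) receptor membranes from Perkin Elmer Biosignal were immobilized in FlashPlate microplates using a proprietary coating. Each well got 19.5 μl buffer, then 0.5 μl of DMSO, reference ligand, or compound. Adding 5 μl of [125I]-Urotensin II, diluted to 5× final concentration in binding buffer, started binding. Plates were sealed with TopSeal-A and incubated 1 hour at room temperature in the dark. Wells were counted for 30 seconds each on a TopCount after a 60-second delay, and percentage inhibition was calculated.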

Human κ-Opioid (KOP) = biological target: T3, Human κ-Opioid (KOP) (Homo sapiens, UniProt P41145); test: Radioligand binding, human κ-opioid (KOP) membranes, filtration, [3H]-Diprenorphine; conditions: compound at 10 μM, [3H]-Diprenorphine
T3 construct: purchased Perkin Elmer Biosignal
How it was run: (§2)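 Filtration binding on cloned human receptor membranes (1 Unit/well), [125I]-Substance P for NK1 and [3H]-Diprenorphine for KOP, 1 h at room temperature. Filters PEI-presoaked, washed with cold 50 mM Tris-HCl pH 7.4, counted by scintillation; percent inhibition calculated, reference ligand defining non-specific binding.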

Human neurokinin (NK1) = biological target: T4, Human neurokinin (NK1) (Homo sapiens, UniProt P25103); test: Radioligand binding, human neurokinin NK1 membranes, filtration, [125I]-Substance P; conditions: compound at 10 μM, [125I]-Substance P
T4 construct: purchased Perkin Elmer Biosignal
How it was run: as §2

Human melanocortin (MC5) = biological target: T5, Human melanocortin (MC5) (Homo sapiens, UniProt P33032); test: Radioligand binding, human melanocortin MC5 membranes, FlashPlate, [125I]-NDP-αMSH; conditions: compound at 10 μM, [125I]-NDP-αMSH
T5 construct: purchased Perkin Elmer Biosignal
How it was run: as §1

Human μ-opioid (MOP) = biological target: T6, Human μ-opioid (MOP) (Homo sapiens, UniProt P35372); test: Radioligand binding, human μ-opioid (MOP) membranes, FlashPlate, [3H]-Naloxone; conditions: compound at 10 μM, [3H]-Naloxone
T6 construct: purchased Perkin Elmer Biosignal
How it was run: as §1

Human δ-opioid (DOP) = biological target: T7, Human δ-opioid (DOP) (Homo sapiens, UniProt P41143); test: Radioligand binding, human δ-opioid (DOP) membranes, FlashPlate, [3H]-Bremazocine; conditions: compound at 10 μM, [3H]-Bremazocine
T7 construct: purchased Perkin Elmer Biosignal
How it was run: as §1

Human Melanocortin (MC3) = biological target: T8, Human Melanocortin (MC3) (Homo sapiens, UniProt P41968); test: Radioligand binding, human melanocortin MC3 membranes, FlashPlate, [125I]-NDP-αMSH; conditions: compound at 10 μM, [125I]-NDP-αMSH
T8 construct: purchased Perkin Elmer Biosignal
How it was run: as §1

[1] = biological target: T9, Human neuropeptide Y (NPY-Y1) (Homo sapiens, UniProt P25929); test: Radioligand binding, human neuropeptide Y NPY-Y1 membranes, FlashPlate, [125I]-PYY; conditions: compound at 10 μM, [125I]-PYY
T9 construct: purchased Perkin Elmer Biosignal
T9 sequence (P25929 1-384): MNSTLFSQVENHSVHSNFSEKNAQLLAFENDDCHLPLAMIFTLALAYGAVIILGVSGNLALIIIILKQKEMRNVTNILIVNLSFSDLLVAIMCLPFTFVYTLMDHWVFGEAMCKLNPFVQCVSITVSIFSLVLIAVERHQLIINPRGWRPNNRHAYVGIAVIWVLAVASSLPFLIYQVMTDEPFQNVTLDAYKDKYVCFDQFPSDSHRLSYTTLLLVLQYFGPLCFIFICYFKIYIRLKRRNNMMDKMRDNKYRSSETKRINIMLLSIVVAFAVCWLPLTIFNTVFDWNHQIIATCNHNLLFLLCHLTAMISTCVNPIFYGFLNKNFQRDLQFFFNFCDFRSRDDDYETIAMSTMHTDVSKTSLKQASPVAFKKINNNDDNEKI
How it was run: as §1

Human opioid (ORL1) = biological target: T10, Human opioid (ORL1) (Homo sapiens, UniProt P41146); test: Radioligand binding, human opioid ORL1 membranes, FlashPlate, [125I]-Nociceptin; conditions: compound at 10 μM, [125I]-Nociceptin
T10 construct: purchased Perkin Elmer Biosignal
How it was run: as §1

[2] = biological target: T11, Human melanin-concentrating hormone (MCH1) (Homo sapiens, UniProt Q99705); test: Radioligand binding, human melanin-concentrating hormone MCH1 membranes, FlashPlate, [125I]-S36057; conditions: compound at 10 μM
T11 construct: purchased Perkin Elmer Biosignal
How it was run: as §1

[3] = [125I]-S36057, human MCH1 membranes

T1 sequence (P32245 whole entry): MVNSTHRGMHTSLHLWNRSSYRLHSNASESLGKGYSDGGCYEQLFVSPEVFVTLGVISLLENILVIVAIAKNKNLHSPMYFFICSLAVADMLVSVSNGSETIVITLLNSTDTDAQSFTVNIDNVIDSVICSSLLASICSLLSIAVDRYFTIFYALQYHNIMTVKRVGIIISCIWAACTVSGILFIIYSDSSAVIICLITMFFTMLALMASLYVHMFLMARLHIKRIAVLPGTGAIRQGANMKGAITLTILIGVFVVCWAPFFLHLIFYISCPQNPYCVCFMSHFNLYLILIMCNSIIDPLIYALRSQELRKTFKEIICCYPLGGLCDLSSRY
T11 sequence (Q99705 whole entry): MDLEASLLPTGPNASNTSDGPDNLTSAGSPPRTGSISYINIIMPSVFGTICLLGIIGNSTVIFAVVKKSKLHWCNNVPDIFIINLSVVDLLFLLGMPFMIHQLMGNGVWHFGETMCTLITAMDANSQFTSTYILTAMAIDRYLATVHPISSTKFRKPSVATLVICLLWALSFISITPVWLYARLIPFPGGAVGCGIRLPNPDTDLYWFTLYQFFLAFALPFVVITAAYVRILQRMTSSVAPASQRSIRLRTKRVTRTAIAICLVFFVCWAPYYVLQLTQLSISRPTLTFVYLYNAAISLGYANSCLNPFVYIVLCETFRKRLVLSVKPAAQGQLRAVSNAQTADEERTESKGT
T8 sequence (P41968 whole entry): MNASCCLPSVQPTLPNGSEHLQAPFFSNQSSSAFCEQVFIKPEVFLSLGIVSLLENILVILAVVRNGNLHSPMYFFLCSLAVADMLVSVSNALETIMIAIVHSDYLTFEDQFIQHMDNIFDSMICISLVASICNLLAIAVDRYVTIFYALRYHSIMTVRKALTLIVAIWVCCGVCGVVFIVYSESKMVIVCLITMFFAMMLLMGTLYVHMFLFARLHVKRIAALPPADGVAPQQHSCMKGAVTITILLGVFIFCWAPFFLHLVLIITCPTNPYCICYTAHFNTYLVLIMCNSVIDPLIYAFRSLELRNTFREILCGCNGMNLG
T4 sequence (P25103 whole entry): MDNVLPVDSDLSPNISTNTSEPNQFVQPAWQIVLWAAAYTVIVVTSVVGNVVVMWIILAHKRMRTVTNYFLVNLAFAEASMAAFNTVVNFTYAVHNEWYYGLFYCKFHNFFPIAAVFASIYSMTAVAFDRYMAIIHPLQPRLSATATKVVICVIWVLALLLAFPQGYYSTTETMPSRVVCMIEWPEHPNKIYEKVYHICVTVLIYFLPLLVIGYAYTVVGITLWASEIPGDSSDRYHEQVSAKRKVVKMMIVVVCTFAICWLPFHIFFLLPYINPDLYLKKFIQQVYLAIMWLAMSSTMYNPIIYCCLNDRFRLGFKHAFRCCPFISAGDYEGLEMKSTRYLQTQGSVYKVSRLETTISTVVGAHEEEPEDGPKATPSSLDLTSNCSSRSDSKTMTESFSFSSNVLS
T7 sequence (P41143 whole entry): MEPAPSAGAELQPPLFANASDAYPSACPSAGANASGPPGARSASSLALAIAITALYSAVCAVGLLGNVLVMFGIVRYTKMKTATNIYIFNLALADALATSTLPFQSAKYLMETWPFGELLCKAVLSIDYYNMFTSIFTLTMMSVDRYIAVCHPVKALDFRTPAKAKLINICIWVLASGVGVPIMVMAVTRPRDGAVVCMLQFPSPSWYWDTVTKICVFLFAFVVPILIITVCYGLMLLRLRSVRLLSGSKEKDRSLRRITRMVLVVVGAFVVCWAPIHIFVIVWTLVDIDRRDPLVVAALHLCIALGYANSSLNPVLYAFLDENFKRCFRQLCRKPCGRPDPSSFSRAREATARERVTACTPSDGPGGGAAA
T3 sequence (P41145 whole entry): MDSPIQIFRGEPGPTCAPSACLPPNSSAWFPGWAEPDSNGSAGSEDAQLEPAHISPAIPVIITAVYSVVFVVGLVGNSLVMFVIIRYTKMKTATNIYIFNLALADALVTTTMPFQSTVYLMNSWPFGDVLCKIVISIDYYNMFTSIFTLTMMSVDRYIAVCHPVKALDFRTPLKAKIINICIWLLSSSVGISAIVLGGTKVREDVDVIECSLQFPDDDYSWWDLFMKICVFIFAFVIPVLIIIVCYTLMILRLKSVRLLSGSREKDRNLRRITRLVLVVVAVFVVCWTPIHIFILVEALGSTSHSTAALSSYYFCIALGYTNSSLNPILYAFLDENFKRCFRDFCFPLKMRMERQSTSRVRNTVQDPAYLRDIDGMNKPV
T5 sequence (P33032 whole entry): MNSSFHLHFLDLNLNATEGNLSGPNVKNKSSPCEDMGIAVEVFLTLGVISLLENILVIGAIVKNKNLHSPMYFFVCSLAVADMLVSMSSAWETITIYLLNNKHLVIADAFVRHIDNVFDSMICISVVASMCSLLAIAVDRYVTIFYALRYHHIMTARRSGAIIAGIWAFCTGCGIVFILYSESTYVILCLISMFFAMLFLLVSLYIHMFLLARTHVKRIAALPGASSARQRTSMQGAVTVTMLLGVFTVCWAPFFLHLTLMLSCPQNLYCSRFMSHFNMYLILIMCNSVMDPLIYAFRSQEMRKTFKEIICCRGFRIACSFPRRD
T10 sequence (P41146 whole entry): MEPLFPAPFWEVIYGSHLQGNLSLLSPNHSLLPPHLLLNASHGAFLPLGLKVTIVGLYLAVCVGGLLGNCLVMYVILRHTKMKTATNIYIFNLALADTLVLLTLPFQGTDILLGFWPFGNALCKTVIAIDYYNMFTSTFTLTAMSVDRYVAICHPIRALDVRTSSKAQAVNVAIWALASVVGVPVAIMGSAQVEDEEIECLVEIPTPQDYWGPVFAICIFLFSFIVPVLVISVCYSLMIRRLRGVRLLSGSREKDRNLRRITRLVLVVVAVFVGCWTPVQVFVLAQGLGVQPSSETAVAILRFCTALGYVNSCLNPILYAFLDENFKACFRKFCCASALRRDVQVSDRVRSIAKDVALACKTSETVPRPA
T6 sequence (P35372 whole entry): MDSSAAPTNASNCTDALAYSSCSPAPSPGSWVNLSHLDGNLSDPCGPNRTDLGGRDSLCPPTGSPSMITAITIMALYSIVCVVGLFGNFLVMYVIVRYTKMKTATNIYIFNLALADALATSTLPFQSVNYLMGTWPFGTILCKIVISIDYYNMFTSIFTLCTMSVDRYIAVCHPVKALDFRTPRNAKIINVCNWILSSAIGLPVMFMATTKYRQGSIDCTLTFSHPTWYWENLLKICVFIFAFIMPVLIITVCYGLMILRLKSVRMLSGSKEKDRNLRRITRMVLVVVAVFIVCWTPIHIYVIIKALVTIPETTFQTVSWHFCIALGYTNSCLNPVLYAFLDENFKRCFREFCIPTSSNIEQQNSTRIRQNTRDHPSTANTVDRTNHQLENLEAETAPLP

Row | SMILES | A4: inhibition of radioligand binding (Human Melanocortin (MC4); human MC4 membranes) | A11: inhibition of radioligand binding (Mouse urotensin (mUR2); mouse mUR2 membranes) | A2: inhibition of radioligand binding (Human κ-Opioid (KOP); human KOP membranes) | A8: inhibition of radioligand binding (Human neurokinin (NK1); human NK1 membranes) | A5: inhibition of radioligand binding (Human melanocortin (MC5); human MC5 membranes) | A7: inhibition of radioligand binding (Human μ-opioid (MOP); human MOP membranes) | A1: inhibition of radioligand binding (Human δ-opioid (DOP); human DOP membranes) | A3: inhibition of radioligand binding (Human Melanocortin (MC3); human MC3 membranes) | A9: inhibition of radioligand binding ([1]; human NPY-Y1 membranes) | A10: inhibition of radioligand binding (Human opioid (ORL1); human ORL1 membranes) | A6: inhibition of radioligand binding [2, 3] | A4: inhibition of radioligand binding (Human Melanocortin (MC4); FlashPlate) | A11: inhibition of radioligand binding (Mouse urotensin (mUR2); FlashPlate) | A2: inhibition of radioligand binding (Human κ-Opioid (KOP); filtration) | A8: inhibition of radioligand binding (Human neurokinin (NK1); filtration) | A5: inhibition of radioligand binding (Human melanocortin (MC5); FlashPlate) | A7: inhibition of radioligand binding (Human μ-opioid (MOP); FlashPlate) | A1: inhibition of radioligand binding (Human δ-opioid (DOP); FlashPlate) | A3: inhibition of radioligand binding (Human Melanocortin (MC3); FlashPlate) | A9: inhibition of radioligand binding ([1]; FlashPlate) | other results
1 | N=C(N)NCC(=O)NC1C(OCc2ccc(Cl)cc2)OC(COCc2ccc(Cl)cc2)C(O)C1OCc1ccc(Cl)cc1 (stereo not shown) [compound 419] | + (“+” indicates greater than 50% inhibition at 10 μM) | − (“−” indicates less than 50% inhibition at 10 μM) | − (“−” indicates less than 50% inhibition at 10 μM) | + (“+” indicates greater than 50% inhibition at 10 μM) | + (“+” indicates greater than 50% inhibition at 10 μM) | − (“−” indicates less than 50% inhibition at 10 μM) | − (“−” indicates less than 50% inhibition at 10 μM) | + (“+” indicates greater than 50% inhibition at 10 μM) | − (“−” indicates less than 50% inhibition at 10 μM) | + (“+” indicates greater than 50% inhibition at 10 μM) | + (“+” indicates greater than 50% inhibition at 10 μM) | – | – | – | – | – | – | – | – | – | –
2 | CSC1OC(COCc2ccc(-c3ccccc3)cc2)C(O)C(OCc2ccccc2)C1NC(=O)CCCN (stereo not shown) [compound 258] | – | – | – | – | – | – | – | – | – | – | – | − (“−” indicates less than 50% inhibition at 10 μM) | − (“−” indicates less than 50% inhibition at 10 μM) | − (“−” indicates less than 50% inhibition at 10 μM) | + (“+” indicates greater than 50% inhibition at 10 μM) | − (“−” indicates less than 50% inhibition at 10 μM) | − (“−” indicates less than 50% inhibition at 10 μM) | − (“−” indicates less than 50% inhibition at 10 μM) | − (“−” indicates less than 50% inhibition at 10 μM) | − (“−” indicates less than 50% inhibition at 10 μM) | A10: inhibition of radioligand binding (Human opioid (ORL1); FlashPlate): − (“−” indicates less than 50% inhibition at 10 μM); A6: inhibition of radioligand binding ([2]; [125I]-S36057, FlashPlate): − (“−” indicates less than 50% inhibition at 10 μM)
3 | CSC1O[C@H](COCc2ccc(-c3ccccc3)cc2)[C@@H](O)[C@@H](OCc2ccc(Cl)cc2)[C@H]1NC(=O)CNC(=N)N (stereo partly shown) [compound 275] | – | – | – | – | – | – | – | – | – | – | – | + (“+” indicates greater than 50% inhibition at 10 μM) | − (“−” indicates less than 50% inhibition at 10 μM) | − (“−” indicates less than 50% inhibition at 10 μM) | + (“+” indicates greater than 50% inhibition at 10 μM) | + (“+” indicates greater than 50% inhibition at 10 μM) | − (“−” indicates less than 50% inhibition at 10 μM) | − (“−” indicates less than 50% inhibition at 10 μM) | − (“−” indicates less than 50% inhibition at 10 μM) | − (“−” indicates less than 50% inhibition at 10 μM) | A10: inhibition of radioligand binding (Human opioid (ORL1); FlashPlate): − (“−” indicates less than 50% inhibition at 10 μM); A6: inhibition of radioligand binding ([2]; [125I]-S36057, FlashPlate): − (“−” indicates less than 50% inhibition at 10 μM)
4 | N=C(N)NCCC(=O)NC1C(OCc2ccc(-c3ccccc3)cc2)OC(COCc2ccccc2)C(O)C1OCc1ccc(-c2ccccc2)cc1 (stereo not shown) [compound 415] | + (“+” indicates greater than 50% inhibition at 10 μM) | − (“−” indicates less than 50% inhibition at 10 μM) | − (“−” indicates less than 50% inhibition at 10 μM) | + (“+” indicates greater than 50% inhibition at 10 μM) | + (“+” indicates greater than 50% inhibition at 10 μM) | − (“−” indicates less than 50% inhibition at 10 μM) | − (“−” indicates less than 50% inhibition at 10 μM) | + (“+” indicates greater than 50% inhibition at 10 μM) | − (“−” indicates less than 50% inhibition at 10 μM) | − (“−” indicates less than 50% inhibition at 10 μM) | + (“+” indicates greater than 50% inhibition at 10 μM) | – | – | – | – | – | – | – | – | – | –
5 | NCCCC(=O)NC1C(OCc2ccc3ccccc3c2)OC(COCc2ccccc2)C(O)C1OCc1ccc(Cl)cc1 (stereo not shown) [compound 391] | – | − (“−” indicates less than 50% inhibition at 10 μM) | − (“−” indicates less than 50% inhibition at 10 μM) | + (“+” indicates greater than 50% inhibition at 10 μM) | – | – | − (“−” indicates less than 50% inhibition at 10 μM) | − (“−” indicates less than 50% inhibition at 10 μM) | − (“−” indicates less than 50% inhibition at 10 μM) | – | – | – | – | – | – | – | – | – | – | – | A4: inhibition of radioligand binding (Human Melanocortin (MC4); human MC4 membranes, 10 µM): + (“+” indicates greater than 50% inhibition at 10 μM); A5: inhibition of radioligand binding (Human melanocortin (MC5); human MC5 membranes, 10 µM): − (“−” indicates less than 50% inhibition at 10 μM); A7: inhibition of radioligand binding (Human μ-opioid (MOP); human MOP membranes, 10 µM): − (“−” indicates less than 50% inhibition at 10 μM); A10: inhibition of radioligand binding (Human opioid (ORL1); human ORL1 membranes, 10 µM): − (“−” indicates less than 50% inhibition at 10 μM); A6: inhibition of radioligand binding ([2]; [125I]-S36057, human MCH1 membranes, 10 µM): − (“−” indicates less than 50% inhibition at 10 μM)
